Laboratory results from patent publication US12180084B2, “Cerium (III) carbonate formulations” (THE REGENTS OF THE UNIVERSITY OF CALIFORNIA, priority 2019, dated 2024).

How the values were obtained:
[1] = CR dye photodegradation in TiO2-based sunscreen film (Neutrogena Broad Spectrum Mineral Sunscreen SPF 60+); settings: 3.0 wt. % added agent relative to sunscreen weight
Procedure: Films on filter paper were fabricated and photoreactor experiments were conducted exactly the same way as described in Example 7.3, using CR dye, except UV irradiation in the photoreactor was conducted for a period of 4 h. These films contained either no UV-protecting agent, 3.0 wt. % of Ce2(CO3)3·6H2O that was synthesized according to Example 3, 3.0 wt. % of commercial Ce2(CO3)3·xH2O (Acros Organics), or 3.0 wt. % of ZnO (NANOBYK-3840). […] Upon adding 3 wt. % of Ce2(CO3)3·6H2O synthesized according to Example 3 to the sunscreen formulation, a decrease in the amount of CR dye photodegradation to 15±1% is observed. […] When cerium carbonate consisting of Ce2(CO3)3·xH2O from Acros Organics is instead used in place of Ce2(CO3)3·6H2O synthesized according to Example 3, photoprotection with 24±2% CR dye photodegradation is observed. The properties of Ce2(CO3)3·xH2O from Acros Organics have been ascribed in Example 4, and these aspects are borne out in conjunction with sunscreen-based formulations here as well. When instead of cerium carbonate ZnO (NANOBYK-3840) is used as a UV-protecting agent, less effect on CR dye photodegradation is observed. This is a similar outcome to observations with MB dye and ZnO-based sunscreen formulation in Example 7.2.
The amount of Ce2(CO3)3·6H2O synthesized according to Example 3 that was incorporated into the TiO2-based sunscreen was increased to 5.0 wt. %, and results are shown in FIGS. 23A-23B and are summarized in Table 4. […] There is a slight diminishing return for adding Ce2(CO3)3·6H2O both here and in Example 7.2, but the effect of increasing Ce2(CO3)3·6H2O on organic-molecule photoprotection is much more pronounced than in the case of ZnO.

[2] = CR organic dye photodegradation in dried acrylic paint film under sunlight; settings: 6 h sunlight
Text: To investigate the effectiveness of this approach in a dry (solid) composition, Congo Red (CR) organic dye at a concentration of 3×10^−5 M was incorporated into a waterborne acrylic paint formulation dispersion, together with P25 photocatalyst (10 wt % relative to the Ti-Pure R706 pigment weight used in the dispersion).
A composition was made with 16% Ce (III)-R706 pigment volume concentration comprising CR organic dye (the pigment volume concentration is defined as the volume percentage of solid particles in the system after formation of the composition (e.g., excluding water). This was performed by first preparing a 75 wt % aqueous slurry of Ce (III)-R706 pigment by high shear mixing in presence of 0.3 wt % TAMOL™ 1124 with respect to the weight of pigment. 4.64 g of this slurry was incorporated in 12.78 g of acrylic-based BP 8164 polymer (obtained from the Dow Chemical Company), to which was added 1.966 mL of 3.5×10^−4 M CR aqueous dye solution, and 10 wt % P25 photocatalyst (with respect to pigment weight). The resulting dispersion was mixed under high-shear conditions in a high speed mixer.
Thereafter, 0.6 g of 2020E thickener (a non-ionic urethane rheology modifier) was added into the slurry, and the resulting dispersion was mixed under high-shear conditions in a high-speed mixer, to obtain the final formulation dispersion. The solid (dried) film coating was prepared with a 3 mil (1 mil=0.001 inch) bar applicator on a polyacrylic substrate and dried for 48 h prior to conducting the photocatalysis experiments. During photocatalysis, all the coatings were exposed to sunlight (under similar conditions) for an exposure period of 6 hours. Prior to sunlight exposure, 100 mg of the coating was scraped off with a sharp blade, and was extracted in 1.5 mL of absolute ethanol for UV-visible spectroscopy analysis, to obtain a datum of CR organic dye concentration in the film prior to photocatalysis. Similarly, another 100 mg portion of coating scraped off and extracted after 6 hours of sunlight exposure, and the percentage of dye degradation was calculated by UV-visible spectrophotometry.
To investigate the photopassivation effectiveness of a separate cerium (III) compound in a dry (solid) paint film coating, insoluble cerium (III) carbonate particles and CR organic dye at a concentration of 3×10^−5 M were incorporated into a waterborne acrylic paint formulation dispersion, using either Ti-Pure-R706 or the same rutile TiO2 used in Example 1 as the pigment, and assessed the rate of dye photodegradation relative to an identical dispersion, in the absence of cerium (III) carbonate particles.
The composition of this dispersion, and the procedure for synthesizing the dried coating film is described in the paragraph below. […]

[3] = MB dye photodecomposition under 254 nm light in the absence of any added photocatalyst; settings: 1 mg in 10 mL 10^−5 M MB, up to 60 min, no photocatalyst
Text: Though photocatalysis increases photodecomposition of organics, thought to be mediated by generation of reactive oxygen species (ROS), organic molecules have their own absorptivity of light due to presence of light-absorbing chemical substituents. This absorptivity of light can itself produce radicals in water, which even in the absence of a photocatalyst per se, can ultimately lead to photodegradation/decomposition of organics. Here it was investigated whether it was possible to reduce the inherent photodecomposition/degradation of methylene blue (MB) dye under exposure to 254 nm light, by using cerium (III) carbonate, in the absence of any added photocatalyst.
Two separate sets of photoreactions were performed: (1) 10 mL aqueous solution of 10^−5 M MB dye was exposed to 254 nm light under a photoreactor setup for a duration of up to 60 min and (2) 1 mg Ce2(CO3)3·4H2O that was synthesized according to the procedure described in Example 3 was dispersed in a 10 mL aqueous solution of 10^−5 M MB dye, and the resulting slurry was exposed to 254 nm light under photoreactor setup for a duration of up to 60 min.

[4] = MB organic dye photodegradation in aqueous slurry with P25 photocatalyst under 254 nm light; settings: 1 mg Ce2(CO3)3·4H2O versus 11.4 mg Ce (III)-R706, 2 mg P25

Molecule	% of CR dye photodegradation after 4 h of UV irradiation in photoreactor ([1]; listed as Ce2(CO3)3·xH2O from Acros Organics)	% of CR dye photodegradation after 4 h of UV irradiation in photoreactor ([1]; listed as Commercial Ce2(CO3)3•xH2O (Acros Organics))	photodegradation of CR organic dye in dried paint film ([2]; Ti-Pure R706 pigment, 2 wt. % cerium (III) carbonate relative to pigment)	photodegradation of CR organic dye in dried paint film ([2]; Ti-Pure R706 pigment, 5 wt. % cerium (III) carbonate relative to pigment)	photodegradation of CR organic dye in dried paint film ([2]; rutile TiO2 pigment, 2 wt % cerium (III) carbonate relative to pigment)	photodegradation of CR organic dye in dried paint film ([2]; rutile TiO2 pigment, 5 wt % cerium (III) carbonate relative to pigment)	fold decreased rate of MB dye photodecomposition compared to control MB solution [3]	fold lower rate constant than with the same amount of cerium as Ce (III)-R706 [4]
Ce2(CO3)3·xH2O [Ce2(CO3)3·xH2O (ACROS Organics)]	24±2%	24 ± 2%						
O=C([O-])[O-].O=C([O-])[O-].O=C([O-])[O-].[Ce+3].[Ce+3] [Ce2(CO3)3·4H2O]			29%	12%	20%	did not show any detectable CR dye photodegradation	~40 fold	1.5 fold
